Assay results: patent publication EP0051773A1, “Penicillins, their salts, process for their preparation and pharmaceutical compositions containing them” (Dr. Karl Thomae GmbH, priority 1980, dated 1982)
≈ marks a conversion by molar mass, not a printed value.

Tests used:
[1] = test system: Klebsiella pneumoniae ATCC 10 031; test: serial dilution test in microtiter system (bacteriostasis, MIC); format: cell-based; details: ATCC10, liquid medium, 18 to 20 h at 37°C, read-out: MHK-Werte Kl. pneum. ATCC 10 031
Description: (§1) Für die Untersuchungen wurde die Methode des Reihenverdünnungstestes im Mikrotitersystem angewandt. Die Prüfung der Substanzen auf Bakteriostase erfolgte in flüssigem Medium. Es wurde die Bakteriostasewirkung bei folgenden Konzentrationen untersucht.
(§2) Es wurde ein Nährboden folgender Zusammensetzung benutzt: 10 g Pepton, 8 g Fleischextrakt-Oxoid, 3 g Natriumschlorid, 2 g sek. Natriumphosphat werden mit dest. Wasser auf 1000 ml aufgefüllt (pH 7,2-7,4). Lediglich bei der Testung gegen Streptokokken wurde 1% Glucose hinzugefügt. Das Alter der Primärkulturen betrug etwa 20 Stunden. Die Einstellung der Keimsuspension erfolgte am Photometer (nach "Eppendorf") (Reagenzglas-Durchmesser 14 mm, Filter 546 nm) anhand der Trübung einer Bariumsulfat-Vergleichssuspension, die durch eine Bariumsulfat-Aufschwemmung erzeugt wurde, welche durch die Zugabe von 3,0 ml 1%ige Bariumchloridlösung in 97 ml 1%ige Schwefelsäure entstand. Nach der Einstellung wurden Streptococcus Aronson im Verhältnis 1:15 und die übrigen Testkeime im Verhältnis 1:1500 mit einer Kochsalzlösung weiter verdünnt.
(§3) 16 mg der jeweiligen Substanz wurden in 10 ml-Meßkolben eingewogen und mit dem Lösungsmittel bis zur Marke aufgefüllt. Die weitere Verdünnungsreihe wurde mit destilliertem Wasser oder dem jeweiligen Lösungsmittel hergestellt.
(§4) Die Vertiefungen der Mikrotiterplatten wurden mit 0,2 ml Nährmedium, 0,01 ml der entsprechenden Substanzverdünnung und mit einem Tropfen Keimsuspension (0,01 ml) beschickt und 18 bis 20 Stunden bei 37°C bebrütet. Eine Lösungsmittelkontrolle wurde stets mitgeführt.
(§5) Die Ablesung wurde makroskopisch vorgenommen, wobei die jeweilige Grenkonzentration (= niedrigste noch bakteriostatisch wirksame Konzentration) ermittelt wurde.
(§6) Als Testorganismen wurden benützt: - Staphylococcus aureus SG 511, Escherichia coli ATCC 11 775, Pseudomonas aeruginosa Hamburgensis und Walter, Serratia marcescens ATCC 13 880, Klebsiella pneumoniae ATCC 10 031 und BC 6, Proteus mirabilis Hamburgensis, Proteus rettgeri BC 7 und Enterobacter cloacae ATCC 13 047.
(§7) In der folgenden Tabelle 2 sind die ermittelten minimalen Hemmkonzentrationen (MIC) für typische Vertreter der erfindungsgemäßen Verbindungen aufgeführt, wobei sich die Ziffern auf die Penicilline der Tabelle 1 Seite 18 beziehen.

[2] = test system: Enterobacter cloacae ATCC 13 047; test: as above; format: cell-based; details: ATCC13, liquid medium, 18 to 20 h at 37°C, read-out: MHK-Werte Eb. cloacae 13 047
Description: as §1, §2, §3, §4, §5, §6, §7

Proteus rettgeri BC 7 = test: as above; format: cell-based; details: Providencia rettgeri, BC7; liquid medium, 18 to 20 h at 37°C; read-out: MHK-Werte Prot. rettg. BC 7
Description: as §1, §2, §3, §4, §5, §6, §7

[3] = test system: Klebsiella pneumoniae BC 6; test: as above; format: cell-based; details: BC6, liquid medium, 18 to 20 h at 37°C, read-out: MHK-Werte Kl. pneum. BC 6
Description: as §1, §2, §3, §4, §5, §6, §7

[4] = test system: Pseudomonas aeruginosa Walter; test: as above; format: cell-based; details: liquid medium, 18 to 20 h at 37°C, read-out: MHK-Werte Pseud. aerug. Walter
Description: as §1, §2, §3, §4, §5, §6, §7

[5] = test system: Proteus mirabilis Hamburgensis; test: as above; format: cell-based; details: liquid medium, 18 to 20 h at 37°C, read-out: MHK-Werte Prot. mir. Hbg.
Description: as §1, §2, §3, §4, §5, §6, §7

[6] = test system: Escherichia coli ATCC 11 775; test: as above; format: cell-based; details: ATCC11, liquid medium, 18 to 20 h at 37°C, read-out: MHK-Werte E.coli ATCC 11 755
Description: as §1, §2, §3, §4, §5, §6, §7

[7] = test system: Serratia marcescens ATCC 13 880; test: as above; format: cell-based; details: ATCC13, liquid medium, 18 to 20 h at 37°C, read-out: MHK-Werte Serr. marcesc. ATCC 13 880
Description: as §1, §2, §3, §4, §5, §6, §7

[8] = test system: Staphylococcus aureus SG 511; test: as above; format: cell-based; details: SG511, liquid medium, 18 to 20 h at 37°C, read-out: MHK-Werte Staph. aureus SG 511
Description: as §1, §2, §3, §4, §5, §6, §7

[9] = test system: Pseudomonas aeruginosa Hamburgensis; test: as above; format: cell-based; details: liquid medium, 18 to 20 h at 37°C, read-out: MHK-Werte Pseud. aerug. Hbg.
Description: as §1, §2, §3, §4, §5, §6, §7

E.coli ATCC 11 775 = test: experimental intraperitoneal infection in mice, ED50 (survival); format: in vivo, Mäuse; details: Escherichia coli, ATCC 11 / ATCC 1175, sc, 168 h; female NMRI mice, i.p. infection, s.c. application, treated once, 7 days observation
Description: Eine Reihe der erfindungsgemäßen Verbindungen wurde in vivo bei experimentellen Infektionen an Mäusen untersucht. Man verwendete als pathogene Bakterien E.coli ATCC 11 775 und Pseudomonas aeruginosa Walter. Es wurde eine intraperitoneale Infektion mit 0,2 ml einer 5%igen Mucinsuspension der Bakterien gesetzt. Dies entspricht etwa 2x10^6 Keime E.coli bzw. 8x10^5 Keime Pseudomonas/Maus. Weibliche Mäuse vom Stamm NMRI wurden in Gruppen von jeweils 10 Tieren aufgeteilt, zwei Gruppen blieben unbehandelt, die restlichen Gruppen wurden mit verschiedenen Dosen der jeweiligen erfindungsgemäßen Penicilline zur Bestimmung der ED50 (Dosis, bei der 50 % der Tiere überleben) behandelt. Bei der E.coli-Infektion wurde einmal therapiert. Bei der Pseudomonas-Infektion wurde dreimal behandelt.
Der Beobachtungszeitraum betrug in beiden Fällen 7 Tage. Die Ergebnisse dieser Teste mit repräsentativen Vertretern der erfindungsgemäßen Penicilline sind in der Tabelle 3 dargestellt.

Structure (SMILES)	MIC [1]	MIC [2]	MIC (Proteus rettgeri BC 7)	MIC [3]	MIC [4]	MIC [5]	MIC [6]	MIC [7]	MIC [8]	MIC [9]	ED50 (E.coli ATCC 11 775)
CNS(=O)(=O)c1ccc(Nc2ncc(NC(=O)N[C@@H](C(=O)N[C@@H]3C(=O)N4[C@@H]3SC(C)(C)[C@@H]4C(=O)O)c3ccc(O)c(Cl)c3)c(O)n2)cc1 [Verbindung 13]	2 µg/mL (≈ 2.77 µM)	1 µg/mL (≈ 1.39 µM)	0.5 µg/mL (≈ 0.693 µM)	1 µg/mL (≈ 1.39 µM)	2 µg/mL (≈ 2.77 µM)	0.25 µg/mL (≈ 0.347 µM)	0.25 µg/mL (≈ 0.347 µM)	0.25 µg/mL (≈ 0.347 µM)	0.25 µg/mL (≈ 0.347 µM)	2 µg/mL (≈ 2.77 µM)	
CC(=O)Oc1ccc(CNc2ncc(NC(=O)NC(C(=O)N[C@@H]3C(=O)N4[C@@H]3SC(C)(C)[C@@H]4C(=O)O)c3ccc(O)cc3)c(O)n2)cc1 (stereo partly drawn) [Verbindung 59]	4 µg/mL (≈ 6.01 µM)	2 µg/mL (≈ 3 µM)	1 µg/mL (≈ 1.5 µM)	4 µg/mL (≈ 6.01 µM)	2 µg/mL (≈ 3 µM)	0.06 µg/mL (≈ 0.0901 µM)	0.5 µg/mL (≈ 0.751 µM)	0.5 µg/mL (≈ 0.751 µM)	0.5 µg/mL (≈ 0.751 µM)	2 µg/mL (≈ 3 µM)	
CCCCNS(=O)(=O)c1ccc(Nc2ncc(NC(=O)N[C@@H](C(=O)N[C@@H]3C(=O)N4[C@@H]3SC(C)(C)[C@@H]4C(=O)O)c3ccc(O)cc3)c(O)n2)cc1 [Verbindung 20]											6.6 mg/kg
CC1(C)S[C@@H]2[C@H](NC(=O)C(NC(=O)Nc3cnc(Nc4ccc(C(N)=O)c(C(N)=O)c4)nc3O)c3ccc(O)cc3)C(=O)N2[C@H]1C(=O)O (stereo partly drawn) [Verbindung 55]	2 µg/mL (≈ 2.94 µM)	2 µg/mL (≈ 2.94 µM)	0.5 µg/mL (≈ 0.736 µM)	4 µg/mL (≈ 5.89 µM)	1 µg/mL (≈ 1.47 µM)	0.12 µg/mL (≈ 0.177 µM)	0.25 µg/mL (≈ 0.368 µM)	0.25 µg/mL (≈ 0.368 µM)	0.25 µg/mL (≈ 0.368 µM)	1 µg/mL (≈ 1.47 µM)	
CC1(C)S[C@@H]2[C@H](NC(=O)C(NC(=O)Nc3cnc(NCc4ccc(O)cc4)nc3O)c3ccc(O)cc3)C(=O)N2[C@H]1C(=O)O (stereo partly drawn) [Verbindung 57]	4 µg/mL (≈ 6.41 µM)	1 µg/mL (≈ 1.6 µM)	0.5 µg/mL (≈ 0.802 µM)	8 µg/mL (≈ 12.8 µM)	1 µg/mL (≈ 1.6 µM)	0.06 µg/mL (≈ 0.0962 µM)	0.25 µg/mL (≈ 0.401 µM)	1 µg/mL (≈ 1.6 µM)	0.25 µg/mL (≈ 0.401 µM)	2 µg/mL (≈ 3.21 µM)	7.2 mg/kg
CC1(C)SC2C(NC(=O)C(NC(=O)Nc3cnc(Nc4ccc(S(C)(=O)=O)cc4)nc3O)c3ccc(O)c(Cl)c3)C(=O)N2C1C(=O)O (stereo not drawn) [Verbindung 25]	1 µg/mL (≈ 1.42 µM)	4 µg/mL (≈ 5.66 µM)	0.5 µg/mL (≈ 0.708 µM)	1 µg/mL (≈ 1.42 µM)	2 µg/mL (≈ 2.83 µM)	0.12 µg/mL (≈ 0.17 µM)	0.25 µg/mL (≈ 0.354 µM)	0.25 µg/mL (≈ 0.354 µM)	0.25 µg/mL (≈ 0.354 µM)	2 µg/mL (≈ 2.83 µM)	
CC1(C)S[C@@H]2[C@H](NC(=O)C(NC(=O)Nc3cnc(NCc4ccc(F)cc4)nc3O)c3ccc(O)cc3)C(=O)N2[C@H]1C(=O)O (stereo partly drawn) [Verbindung 60]	2 µg/mL (≈ 3.2 µM)	1 µg/mL (≈ 1.6 µM)	0.5 µg/mL (≈ 0.799 µM)	2 µg/mL (≈ 3.2 µM)	2 µg/mL (≈ 3.2 µM)	0.25 µg/mL (≈ 0.4 µM)	0.25 µg/mL (≈ 0.4 µM)	0.5 µg/mL (≈ 0.799 µM)	0.25 µg/mL (≈ 0.4 µM)	2 µg/mL (≈ 3.2 µM)	
CC1(C)SC2C(NC(=O)C(NC(=O)Nc3cnc(Nc4ccc(S(N)(=O)=O)c(O)c4)nc3O)c3ccc(O)c(Cl)c3)C(=O)N2C1C(=O)O (stereo not drawn) [Verbindung 49]	1 µg/mL (≈ 1.38 µM)	1 µg/mL (≈ 1.38 µM)	0.5 µg/mL (≈ 0.691 µM)	1 µg/mL (≈ 1.38 µM)	2 µg/mL (≈ 2.77 µM)	0.12 µg/mL (≈ 0.166 µM)	0.25 µg/mL (≈ 0.346 µM)	0.25 µg/mL (≈ 0.346 µM)	0.25 µg/mL (≈ 0.346 µM)	2 µg/mL (≈ 2.77 µM)	
